Test [1] has as its system HC110-R. Format: cell-based, Haemonchus contortus. Conditions: for α-LTX-induced increase in [Ca2+]i after preincubation: substance removed, then 75 nM α-LTX. The protocol: (§1) The intracellular free Ca^2+ concentration [Ca^2+]i was measured in COS-7 and HEK293 cells transiently transfected with the HC110-R-EGFP or β2-AR-EGFP construct using the calcium imaging method (see also FIG. 11). In each case 2×10^5 COS-7 and HEK293 cells were applied to a 42 mm cover glass coated with 1% gelatine in 55 mm tissue culture dishes with 5 ml of DMEM medium (with 10% FCS and pen/strep). The transfection took place with the aid of the non-liposomal transfection reagent FuGENE 6 (Roche Molecular Biochemicals, Mannheim). […] Constructs of the HC110-R full-length clone with a GFP tag fused in the correct reading frame, and the complete cDNA of the β2-adrenergic receptor which had likewise been provided with a GFP tag at the 3′ end, were transfected.
(§2) After the incubation, the cells loaded with Fura-2/AM were examined under an inverted microscope (Zeiss, Axiovert, Germany) and, in parallel with this, in a digital imaging fluorescence microscope (PTI) and differentiated into transfected and untransfected cells at a wavelength of 440 and 490 nm respectively. On average, 5-7 transfected and non transfected cells were selected by fixing an ROI (region of interest). The extinction was measured at 340 nm (calcium-bound Fura-2/AM) and 380 nm (free Fura-2/AM), and the emission was measured at 510 nm. Evaluation took place using the Image Master 1.x software by forming the quotient of 340:510 nm, 380:510 nm and the ratio of 340/380:510 nm (background corrected images) as a function of the agent added.
Agents were always added 6 min after starting the measurement by removing an appropriate volume of Na^+ HBS buffer and pipetting the agent directly into the sample vessel for a further 30 to 50 min. The total volume in the sample vessel was constant at 1.5 ml throughout the experiment. […] Addition of CdCl2 and nifedipine took place immediately at the start of the experiment and before addition of α-LTX, and EGTA was added both at the start of the experiment and 4 min after the addition of α-LTX. Dissolved α-LTX was present in a concentration of 300 nM in 50 mM tris-HCl, pH 8.0; BAY 44-4400 was initially dissolved in pure DMSO (stock solutions between 0.004 and 10 μg/ml). The stock solutions were adjusted to the required concentration in the Na^+ HBS buffer. The maximum amount of the active substance BAY 44-4400 which could be dissolved at a final concentration of 0.1% DMSO was found by setting up serial dilutions in Na^+ HBS.
The data were analyzed using the Excel 98 table calculation programme. The results are derived from at least 2-4 reproduced experiments on in each case 4-8 transfected and un-transfected cells.

The nature of test [2]: Ca2+ imaging, arecoline stimulation of untransfected HEK-293 cells. Conditions: 1 mM arecoline; absence of BAY44-4400. Format: cell-based, human.
For test [3], the system named is Heterakis spumosa.
For test [4], the system named is nematodes. Kind of test: Anthelmintic / neuropharmacological activity on nematodes.
Test [5] concerns HC110-R. Kind of test: Ca2+ imaging of HEK-293 cells expressing HC110-R-Myc/His. Type of test: cell-based, Haemonchus contortus. The following applies: stably expressing cells; 400 ng/ml added 6 min before 75 nM α-LTX.
Test [6] relates to endogenous, natural muscarinic acetylcholine receptors. Kind of test: Ca2+ imaging, carbachol stimulation of untransfected HEK-293 cells. Type of test: cell-based, human. The following applies: 1 mM carbachol; absence of BAY44-4400.
Test [7] concerns the target T1, mouse β2-adrenergic receptor (Mus musculus, UniProt P18762).
T1 construct: was fused with a C-terminal EGFP tag by amplifying the full-length cDNA with the P117 mouse 2AR XhoI 5′ primer; expressed in transfected cells; host or cells: HEK-293, transient (pEGFP-N3)
Kind of test: Ca2+ imaging of HEK-293 cells transfected with β2-R-GFP (control). Format: cell-based. The following applies: immediately after addition. As for the experimental part: as §1, §2
Agents were always added 6 min after starting the measurement by removing an appropriate volume of Na^+ HBS buffer and pipetting the agent directly into the sample vessel for a further 30 to 50 min. The total volume in the sample vessel was constant at 1.5 ml throughout the experiment. […] Addition of CdCl2 and nifedipine took place immediately at the start of the experiment and before addition of α-LTX, and EGTA was added both at the start of the experiment and 4 min after the addition of α-LTX. […]
The data were analyzed using the Excel 98 table calculation programme. […]

SMILES strings stand for the structures. Where “and” joins values, the source holds several entries; their conditions need not be identical. Equal values may be shown once. Entries after “also recorded” stand apart in the source; their conditions may differ. Read-outs that look alike come from different tables or passages of the source.

T1 sequence (P18762 whole entry, the tested form may be a part): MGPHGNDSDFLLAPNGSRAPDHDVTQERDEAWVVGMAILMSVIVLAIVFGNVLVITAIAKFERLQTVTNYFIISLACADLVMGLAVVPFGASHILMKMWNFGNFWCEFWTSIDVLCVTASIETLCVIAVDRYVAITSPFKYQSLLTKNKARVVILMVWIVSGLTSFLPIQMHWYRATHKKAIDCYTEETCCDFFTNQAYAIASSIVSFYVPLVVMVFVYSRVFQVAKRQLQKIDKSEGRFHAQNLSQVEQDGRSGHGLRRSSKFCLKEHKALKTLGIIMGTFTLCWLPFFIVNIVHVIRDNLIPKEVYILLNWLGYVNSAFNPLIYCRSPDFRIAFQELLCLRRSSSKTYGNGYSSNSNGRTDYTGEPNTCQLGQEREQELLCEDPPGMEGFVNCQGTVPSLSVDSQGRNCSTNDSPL

For the molecule `O=C(O)CN(CCOCCOCCN(CC(=O)O)CC(=O)O)CC(=O)O` [EGTA], the “α-LTX-induced increase in [Ca2+]i with extracellular Ca2+ removed” value in test [1] (2 mM EGTA before or after addition of α-LTX) is “only a small increase”.
Consider `COC(=O)C1=C(C)NC(C)=C(C(=O)OC)C1c1ccccc1[N+](=O)[O-]` [nifedipine], for which the “second α-LTX-induced increase in [Ca2+]i” value in test [1] (15 μM nifedipine) turned out to be 30 ± 5.4 nM.
Consider `COC(=O)C1=CCCN(C)C1` [arecoline], for which the “arecoline-induced increase in Ca2+” value in test [2] amounted to 27 ± 3.5 nM.
Consider `C1CNCCN1` [piperazine], for which the “effect of piperazine on activity of PF1022A/BAY44-4400” value in test [3] is “synergistically enhances the effect of PF1022A/BAY44-4400”. Moreover, the “change in Ca2+ balance, piperazine alone” value in test [1] (10 μM piperazine, untransfected and HC110-R-GFP-transfected cells) is “no change in the Ca^2+ balance”.
As to `CC(C)C[C@@H]1C(=O)O[C@@H](Cc2ccccc2)C(=O)N(C)[C@H](CC(C)C)C(=O)O[C@@H](C)C(=O)N(C)[C@H](CC(C)C)C(=O)O[C@@H](Cc2ccccc2)C(=O)N(C)[C@H](CC(C)C)C(=O)O[C@@H](C)C(=O)N1C` [PF1022-001, cyclo(-L-Lac-D-MeLeu-L-PhLac-D-Me-Leu-)2], the “anthelmintic / nematicidal activity in words” value in test [4] is given as “has no anthelmintic activity; also recorded: virtually ineffective”. Also, the “α-LTX-induced increase in [Ca2+]i in presence of substance” value was 209 ± 33.4 nM in test [5]; 103 ± 11.5 nM in test [1] (4 ng/ml added 6 min before 75 nM α-LTX); 67 nM in test [1] (4 ng/ml added 6 min before 75 nM α-LTX, listed as optical antipode); 112+14.3 nM in test [1] (400 ng/ml added 6 min before 75 nM α-LTX). In addition, the “change in [Ca2+]i after preincubation with substance alone” value in test [1] (4 ng/ml or 400 ng/ml, 90 min preincubation, no α-LTX) was “no change in [Ca^2+]i”. In addition, the “α-LTX-induced increase in [Ca2+]i after preincubation” value was 102 ± 6.4 nM in test [1] (4 ng/ml, 90 min preincubation); 109 ± 8.4 nM and 110 nM in test [1] (400 ng/ml, 90 min preincubation). Besides, in test [1] (400 ng/ml where stated, no α-LTX, up to 50 min or 90 min preincubation), the “Ca2+ response to substance alone” value is “neither the very effective nematicide BAY44-4400 nor the virtually ineffective antipode PF1022-001 induces a Ca^2+ response”. In addition, the “reduction of α-LTX-induced Ca2+ increase” value in test [1] (400 ng/ml, 90 minutes preincubation, 6 minutes after 75 nM α-LTX) was found to be 59%. Also, in test [1] (100, 300 or 400 ng/ml and 1 or 10 μg/ml, 50 min, untransfected and HC110-R-GFP-transfected cells), the “Ca2+-mediated response to substance alone” value was “At no concentration was a Ca^2+-mediated response detectable”. Also, the “α-LTX-induced increase in Ca2+ at increased concentration of substance” value in test [1] (concentration above 4 ng/ml, added 6 minutes before 75 nM α-LTX) is recorded as 20 nM.
As to `C[N+](C)(C)CCOC(N)=O.[Cl-]` [carbachol, carbamylcholine chloride], the “carbachol-induced increase in [Ca2+]i” value in test [6] is listed as 53+6.8 nM.
Turning to `CC(C)NCC(O)c1ccc(O)c(O)c1` (stereo not shown) [isoproterenol], in test [7], the “Ca2+ response to isoproterenol” value was “significant Ca^2+ response”.

The values are drawn from patent US20050037436A1, “Test systems and the use thereof for identifying and characterizing compounds” (priority 2000, published 2005).
